Measurements published in ChEMBL document CHEMBL3137667, “[Drug-induced liver injury; fourteenth updated edition of the bibliographic database of liver injuries and related drugs]” (Gastroenterol Clin Biol, 2004).

Legend:
[1] = human
[2] = human; remark: listed apart in the source
[3] = human; remark: listed apart in the source
[4] = human, serum, 4383 h
[5] = human; remark: listed apart in the source
[6] = human; remark: listed apart in the source
[7] = Times to onset, minimal and maximal, observed in the indexed observations. [column 'DELAI' in source]; settings: human
[8] = human; remark: listed apart in the source
[9] = Highest frequency of moderate liver toxicity observed during clinical trials, expressed as a percentage. [column '% BIOL' in source]; settings: human
[10] = human; remark: listed apart in the source
[11] = human; remark: listed apart in the source
[12] = human; remark: listed apart in the source
[13] = human; remark: listed apart in the source
[14] = human, serum
[15] = human, serum; remark: listed apart in the source
[16] = Highest frequency of acute liver toxicity observed during clinical trials, expressed as a percentage. [column '% AIGUE' in source]; settings: human
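For Hepatotoxicity (association with vascular disease) in this document: count of indexed literature references reporting vascular liver injury in humans, e.g. peliosis hepatitis, hepatic veno-occlusive disease or Budd-Chiari syndrome.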
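For Hepatotoxicity (benign tumour) in this document: value is a count of indexed literature references citing a benign tumour confirmed by histopathology.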
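For Hepatotoxicity (choleostasis) in this document: human cholestatic liver injury, shown by histopathology or by peak ALT or AST elevation over alkaline phosphatase ratio below 2, value counts indexed literature reports.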
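For Hepatotoxicity (chronic liver disease) in this document: chronic liver injury confirmed by histopathology or persistently raised serum aminotransferase activity beyond 6 months, value given as the count of indexed literature references.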
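For Hepatotoxicity (cirrhosis) in this document: value is a count of indexed literature references reporting cirrhosis confirmed by histopathology.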
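For Hepatotoxicity (cytolytic) in this document: human cytolytic liver injury, shown by histopathology or by a ratio above 5 of peak ALT or AST elevation to alkaline phosphatase elevation, value counts indexed references.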
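For Hepatotoxicity (granulomatous hepatitis) in this document: value is a count of indexed literature references reporting granulomatous liver disease confirmed by histopathology.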
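For Hepatotoxicity (malignant tumour) in this document: malignant tumour confirmed by histopathology, value gives the count of indexed literature references reporting it.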
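For Hepatotoxicity (severe hepatitis) in this document: human clinical data: severe hepatitis, meaning potentially life-threatening liver failure or clinically observed cases, the value counts how many indexed literature references report it.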
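For Hepatotoxicity (steatosis) in this document: steatosis confirmed by histopathology, value is the count of indexed references.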

CCCC1C(=O)N2C(N(C)C)=Nc3ccc(C)cc3N2C1=O (centres undefined) [APAZONE]
Hepatotoxicity (choleostasis) [1]: 1
Hepatotoxicity (granulomatous hepatitis) [2]: 1
Hepatotoxicity (association with vascular disease) [3]: 0
Hepatotoxicity (chronic liver disease) [4]: 0
Hepatotoxicity (cirrhosis) [5]: 0
Hepatotoxicity (steatosis) [6]: 0
Hepatotoxicity (time to onset) [7]: 3 weeks
Hepatotoxicity (animal toxicity known) [8]: yes
Hepatotoxicity (moderate) [9]: 0%
Hepatotoxicity (malignant tumour) [10]: 0
Hepatotoxicity (cytolytic) [11]: 0
Hepatotoxicity (severe hepatitis) [12]: 0
Hepatotoxicity (benign tumour) [13]: 0
Hepatotoxicity (moderate) [14]: 1

N#CN [CYANAMIDE]
Hepatotoxicity (choleostasis) [1]: 2
Hepatotoxicity (granulomatous hepatitis) [2]: 0
Hepatotoxicity (acute) [15]: 2
Hepatotoxicity (association with vascular disease) [3]: 0
Hepatotoxicity (chronic liver disease) [4]: 11
Hepatotoxicity (cirrhosis) [5]: 2
Hepatotoxicity (steatosis) [6]: 0
Hepatotoxicity (animal toxicity known) [8]: yes
Hepatotoxicity (moderate) [9]: 0%
Hepatotoxicity (malignant tumour) [10]: 0
Hepatotoxicity (cytolytic) [11]: 0
Hepatotoxicity (severe hepatitis) [12]: 0
Hepatotoxicity (benign tumour) [13]: 0
Hepatotoxicity (acute) [16]: 0%
Hepatotoxicity (moderate) [14]: 0

NC[C@@H]1CC[C@@H](N)[C@@H](O[C@H]2[C@H](O)[C@@H](O[C@H]3O[C@H](CO)[C@@H](O)[C@H](N)[C@H]3O)[C@H](N)C[C@@H]2N)O1 [DIBEKACIN]
Hepatotoxicity (choleostasis) [1]: 0
Hepatotoxicity (granulomatous hepatitis) [2]: 0
Hepatotoxicity (acute) [15]: 0
Hepatotoxicity (association with vascular disease) [3]: 0
Hepatotoxicity (chronic liver disease) [4]: 0
Hepatotoxicity (cirrhosis) [5]: 0
Hepatotoxicity (steatosis) [6]: 0
Hepatotoxicity (animal toxicity known) [8]: yes
Hepatotoxicity (moderate) [9]: 13.7%
Hepatotoxicity (malignant tumour) [10]: 0
Hepatotoxicity (cytolytic) [11]: 0
Hepatotoxicity (severe hepatitis) [12]: 0
Hepatotoxicity (benign tumour) [13]: 0
Hepatotoxicity (acute) [16]: 0%
Hepatotoxicity (moderate) [14]: 1

C[C@]12CC[C@@H]3c4ccc(O)cc4CC[C@H]3[C@@H]1CC[C@@H]2O [ESTRADIOL]
Hepatotoxicity (choleostasis) [1]: 1
Hepatotoxicity (granulomatous hepatitis) [2]: 0
Hepatotoxicity (acute) [15]: 1
Hepatotoxicity (association with vascular disease) [3]: 0
Hepatotoxicity (chronic liver disease) [4]: 0
Hepatotoxicity (cirrhosis) [5]: 0
Hepatotoxicity (steatosis) [6]: 0
Hepatotoxicity (animal toxicity known) [8]: yes
Hepatotoxicity (moderate) [9]: 0%
Hepatotoxicity (malignant tumour) [10]: 0
Hepatotoxicity (cytolytic) [11]: 0
Hepatotoxicity (severe hepatitis) [12]: 0
Hepatotoxicity (benign tumour) [13]: 0
Hepatotoxicity (acute) [16]: 0%
Hepatotoxicity (moderate) [14]: 0

CC(=O)O[C@]1(C(C)=O)CC[C@H]2[C@@H]3C=C(C)C4=CC(=O)CC[C@]4(C)[C@H]3CC[C@@]21C [MEGESTROL ACETATE]
Hepatotoxicity (choleostasis) [1]: 0
Hepatotoxicity (granulomatous hepatitis) [2]: 0
Hepatotoxicity (acute) [15]: 1
Hepatotoxicity (association with vascular disease) [3]: 0
Hepatotoxicity (chronic liver disease) [4]: 0
Hepatotoxicity (cirrhosis) [5]: 0
Hepatotoxicity (steatosis) [6]: 0
Hepatotoxicity (animal toxicity known) [8]: yes
Hepatotoxicity (moderate) [9]: 12.8%
Hepatotoxicity (malignant tumour) [10]: 0
Hepatotoxicity (cytolytic) [11]: 1
Hepatotoxicity (severe hepatitis) [12]: 0
Hepatotoxicity (benign tumour) [13]: 0
Hepatotoxicity (acute) [16]: 2.7%
Hepatotoxicity (moderate) [14]: 4

O=C1Nc2ccc(Cl)cc2C(c2ccccc2)=NC1O (centres undefined) [OXAZEPAM]
Hepatotoxicity (choleostasis) ([1]; Liver): 0
Hepatotoxicity (granulomatous hepatitis) ([2]; Liver): 0
Hepatotoxicity (acute) [15]: 0
Hepatotoxicity (association with vascular disease) [3]: 1
Hepatotoxicity (chronic liver disease) [4]: 0
Hepatotoxicity (cirrhosis) [5]: 0
Hepatotoxicity (steatosis) [6]: 0
Hepatotoxicity (animal toxicity known) [8]: yes
Hepatotoxicity (moderate) ([9]; Liver): 0%
Hepatotoxicity (malignant tumour) [10]: 0
Hepatotoxicity (cytolytic) ([11]; Liver): 0
Hepatotoxicity (severe hepatitis) ([12]; Liver): 0
Hepatotoxicity (benign tumour) [13]: 0
Hepatotoxicity (acute) ([16]; Liver): 0%
Hepatotoxicity (moderate) [14]: 0

Cc1[nH]cnc1CSCCNc1ncc(Cc2ccc3c(c2)OCO3)c(=O)[nH]1 [OXMETIDINE]
Hepatotoxicity (choleostasis) [1]: 0
Hepatotoxicity (granulomatous hepatitis) [2]: 0
Hepatotoxicity (acute) [15]: 1
Hepatotoxicity (association with vascular disease) [3]: 0
Hepatotoxicity (chronic liver disease) [4]: 0
Hepatotoxicity (cirrhosis) [5]: 0
Hepatotoxicity (steatosis) [6]: 0
Hepatotoxicity (animal toxicity known) [8]: yes
Hepatotoxicity (moderate) [9]: 0%
Hepatotoxicity (malignant tumour) [10]: 0
Hepatotoxicity (cytolytic) [11]: 0
Hepatotoxicity (severe hepatitis) [12]: 0
Hepatotoxicity (benign tumour) [13]: 0
Hepatotoxicity (acute) [16]: 0.1%
Hepatotoxicity (moderate) [14]: 1

CCOC(=O)C1(c2ccccc2)CCN(CCC(O)c2ccccc2)CC1 (centres undefined) [PHENOPERIDINE]
Hepatotoxicity (choleostasis) [1]: 1
Hepatotoxicity (granulomatous hepatitis) [2]: 0
Hepatotoxicity (acute) [15]: 1
Hepatotoxicity (association with vascular disease) [3]: 0
Hepatotoxicity (chronic liver disease) [4]: 0
Hepatotoxicity (cirrhosis) [5]: 0
Hepatotoxicity (steatosis) [6]: 0
Hepatotoxicity (animal toxicity known) [8]: yes
Hepatotoxicity (moderate) [9]: 0%
Hepatotoxicity (malignant tumour) [10]: 0
Hepatotoxicity (cytolytic) [11]: 0
Hepatotoxicity (severe hepatitis) [12]: 0
Hepatotoxicity (benign tumour) [13]: 0
Hepatotoxicity (acute) [16]: 0%
Hepatotoxicity (moderate) [14]: 0

O=C(OC[C@H]1O[C@@H](OC(=O)c2cc(O)c(O)c(OC(=O)c3cc(O)c(O)c(O)c3)c2)[C@H](OC(=O)c2cc(O)c(O)c(OC(=O)c3cc(O)c(O)c(O)c3)c2)[C@@H](OC(=O)c2cc(O)c(O)c(OC(=O)c3cc(O)c(O)c(O)c3)c2)[C@@H]1OC(=O)c1cc(O)c(O)c(OC(=O)c2cc(O)c(O)c(O)c2)c1)c1cc(O)c(O)c(OC(=O)c2cc(O)c(O)c(O)c2)c1 [TANNIC ACID]
Hepatotoxicity (choleostasis) [1]: 0
Hepatotoxicity (granulomatous hepatitis) [2]: 0
Hepatotoxicity (acute) [15]: 13
Hepatotoxicity (association with vascular disease) [3]: 0
Hepatotoxicity (chronic liver disease) [4]: 0
Hepatotoxicity (cirrhosis) [5]: 0
Hepatotoxicity (steatosis) [6]: 0
Hepatotoxicity (animal toxicity known) [8]: yes
Hepatotoxicity (moderate) [9]: 0%
Hepatotoxicity (malignant tumour) [10]: 0
Hepatotoxicity (cytolytic) [11]: 13
Hepatotoxicity (severe hepatitis) [12]: 8
Hepatotoxicity (benign tumour) [13]: 0
Hepatotoxicity (acute) [16]: 0%
Hepatotoxicity (moderate) [14]: 0

CC[C@]1(O)C[C@@H]2CN(CCc3c([nH]c4ccccc34)[C@@](C(=O)OC)(c3cc4c(cc3OC)N(C)[C@H]3[C@@](O)(C(N)=O)[C@H](O)[C@]5(CC)C=CCN6CC[C@]43[C@@H]65)C2)C1 [VINDESINE]
Hepatotoxicity (choleostasis) [1]: 0
Hepatotoxicity (granulomatous hepatitis) [2]: 0
Hepatotoxicity (acute) [15]: 0
Hepatotoxicity (association with vascular disease) [3]: 0
Hepatotoxicity (chronic liver disease) [4]: 0
Hepatotoxicity (cirrhosis) [5]: 0
Hepatotoxicity (steatosis) [6]: 0
Hepatotoxicity (animal toxicity known) [8]: yes
Hepatotoxicity (moderate) [9]: 9.1%
Hepatotoxicity (malignant tumour) [10]: 0
Hepatotoxicity (cytolytic) [11]: 0
Hepatotoxicity (severe hepatitis) [12]: 0
Hepatotoxicity (benign tumour) [13]: 0
Hepatotoxicity (acute) [16]: 0%
Hepatotoxicity (moderate) [14]: 2

POVIDONE-IODINE
Hepatotoxicity (choleostasis) [1]: 0
Hepatotoxicity (granulomatous hepatitis) [2]: 0
Hepatotoxicity (acute) [15]: 2
Hepatotoxicity (association with vascular disease) [3]: 0
Hepatotoxicity (chronic liver disease) [4]: 0
Hepatotoxicity (cirrhosis) [5]: 0
Hepatotoxicity (steatosis) [6]: 0
Hepatotoxicity (animal toxicity known) [8]: yes
Hepatotoxicity (moderate) [9]: 80%
Hepatotoxicity (malignant tumour) [10]: 0
Hepatotoxicity (cytolytic) [11]: 0
Hepatotoxicity (severe hepatitis) [12]: 0
Hepatotoxicity (benign tumour) [13]: 0
Hepatotoxicity (acute) [16]: 0%
Hepatotoxicity (moderate) [14]: 2
